Test results as given in ChEMBL document CHEMBL1201862, “PubChem BioAssay data set” (2004).
Calls of active or inactive are those of the source.

Experiments:
[1] = Luminescence Cell-Based Secondary HTS screen to identify cytotoxic compounds of NIH3T3 cells. [Related pubchem assays: 1885, 1968 ]; assay type: functional
[2] = cells
[3] = test system: HEK293; assay: cells; assay type: functional, cell-based; settings: Homo sapiens;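 also: NOD2 overexpressing HEK293T cells carrying an NF-kB luciferase reporter; compound exposure roughly 14 hours overnight then 1 hour with resazurin; potency is for loss of cell viability meaning cytotoxicity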
[4] = target: T1, Caspase-3 (Homo sapiens, UniProt P42574); assay type: functional;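 also: Dose-response selectivity test against caspase-3 for candidate inhibitors of sentrin-specific proteases (SENPs)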
T1 sequence (P42574 whole entry): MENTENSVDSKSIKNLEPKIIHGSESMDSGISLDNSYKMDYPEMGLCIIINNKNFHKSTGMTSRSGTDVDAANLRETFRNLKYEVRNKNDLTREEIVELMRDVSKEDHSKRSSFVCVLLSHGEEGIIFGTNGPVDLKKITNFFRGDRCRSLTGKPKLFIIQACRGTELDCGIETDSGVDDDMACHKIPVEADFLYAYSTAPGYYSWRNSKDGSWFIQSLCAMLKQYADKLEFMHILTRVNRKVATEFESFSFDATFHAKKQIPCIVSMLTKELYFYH

[5] = test system: Vero; assay: Vero cell cytotoxicity, cytotoxicity control for flavivirus capping enzyme inhibitors (AID 588742); assay type: functional; settings: Chlorocebus sabaeus
[6] = target: Polyadenylate-binding protein 1 (Homo sapiens, UniProt P11940); assay: PABP1 MLLE–PAM2 binding inhibitor potency, dose response, biochemical, fluorescence polarization, FITC-PAM2 peptide (AID 602259); assay type: functional; settings: read-out: IC50_Mean
Polyadenylate-binding protein 1, sequence (P11940 whole entry): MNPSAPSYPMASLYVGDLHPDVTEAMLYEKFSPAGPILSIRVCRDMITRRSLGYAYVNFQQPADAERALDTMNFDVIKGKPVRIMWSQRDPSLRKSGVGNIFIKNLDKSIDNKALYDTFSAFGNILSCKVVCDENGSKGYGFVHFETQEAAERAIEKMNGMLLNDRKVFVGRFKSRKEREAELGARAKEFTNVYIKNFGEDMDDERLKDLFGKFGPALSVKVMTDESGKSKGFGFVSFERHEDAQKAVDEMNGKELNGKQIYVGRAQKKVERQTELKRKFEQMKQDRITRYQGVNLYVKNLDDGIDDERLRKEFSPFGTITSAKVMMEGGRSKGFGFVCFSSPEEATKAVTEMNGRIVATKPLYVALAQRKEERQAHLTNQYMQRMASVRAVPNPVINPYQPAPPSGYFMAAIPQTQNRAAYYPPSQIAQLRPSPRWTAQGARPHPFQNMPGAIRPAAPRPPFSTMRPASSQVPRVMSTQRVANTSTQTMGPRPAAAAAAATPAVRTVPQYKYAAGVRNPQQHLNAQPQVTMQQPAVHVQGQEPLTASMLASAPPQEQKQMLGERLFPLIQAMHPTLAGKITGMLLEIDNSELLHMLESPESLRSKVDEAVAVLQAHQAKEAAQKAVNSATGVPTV

[7] = target: T2, Rac GTPase-activating protein 1 (Homo sapiens, UniProt Q9H0H5); assay: MgcRacGAP GTPase-activating activity inhibitors, confirmation, biochemical, ADP Hunter fluorescence, primary and confirmatory (AID 624330); assay type: functional
T2 sequence (Q9H0H5 whole entry): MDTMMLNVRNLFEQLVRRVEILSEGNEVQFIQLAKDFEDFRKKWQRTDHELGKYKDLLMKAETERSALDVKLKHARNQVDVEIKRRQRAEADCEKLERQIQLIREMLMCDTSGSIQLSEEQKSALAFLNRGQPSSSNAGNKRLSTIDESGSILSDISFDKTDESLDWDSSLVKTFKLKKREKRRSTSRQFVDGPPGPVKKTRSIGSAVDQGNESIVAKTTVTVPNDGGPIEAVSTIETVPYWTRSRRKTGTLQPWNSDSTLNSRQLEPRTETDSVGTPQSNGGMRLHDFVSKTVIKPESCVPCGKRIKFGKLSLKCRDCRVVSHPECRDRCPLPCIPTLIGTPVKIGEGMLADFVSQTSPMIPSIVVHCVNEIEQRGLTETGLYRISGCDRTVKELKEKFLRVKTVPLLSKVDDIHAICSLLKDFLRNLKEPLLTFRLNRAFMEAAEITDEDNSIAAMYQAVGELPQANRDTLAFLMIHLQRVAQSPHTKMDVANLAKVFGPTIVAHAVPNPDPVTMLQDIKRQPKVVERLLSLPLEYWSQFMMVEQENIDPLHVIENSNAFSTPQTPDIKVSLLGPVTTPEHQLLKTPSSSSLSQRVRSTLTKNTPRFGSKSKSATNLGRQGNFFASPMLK

[8] = Fluorescence-based cell-based high throughput dose response assay for inhibitors of the interaction of nucleotide-binding oligomerization domain containing 2 (NOD2) and the receptor-interacting serine-threonine kinase 2 (RIPK2).; assay type: functional, Homo sapiens; settings: Homo sapiens

Which EC50 [1] does the source give for `O=C(CNc1cccc2ccccc12)N/N=C/c1ccc([N+](=O)[O-])o1` here?
Its EC50 is 17.5 µM (active).

What about the EC50 [2] of the same compound?
Its EC50 is 0.064 µM (active).

And the IC50 [3]?
The IC50 was > 20 µM (inactive).

For `O=C1NC(=S)N/C1=C/c1cc2c(cc1[N+](=O)[O-])OCO2`, which IC50 [4] is on record?
Its IC50 is 27.6 µM (active).

Which results are given for `O=C(O)CSc1cc(NS(=O)(=O)c2ccc(Br)cc2)c2ccccc2c1O`?
CC50 [5]: 34 µM (active); IC50 [6]: > 66 µM (inactive)

What does the source list for `Cc1ccc(NC(=O)C2=C(c3ccccc3)S(=O)(=O)CCS2(=O)=O)cc1`?
IC50 [7]: 97.4 µM (active); IC50 [8]: 2.73 µM (active)
